What was measured:
Assay type in all cases: cell-based
ENL [1] = biological target: T1, ENL (Homo sapiens, UniProt Q03111); experiment: Western blot of ENL protein levels in MV4; 11 cells; conditions: 11 cells; for ENL protein level after long treatment: 1 μM for 48 and 72 h
T1 construct: Cells were lysed and expression of endogenous ENL was assessed by Western blot analysis; host or cells: MV4;11
T1 sequence (Q03111 1-559): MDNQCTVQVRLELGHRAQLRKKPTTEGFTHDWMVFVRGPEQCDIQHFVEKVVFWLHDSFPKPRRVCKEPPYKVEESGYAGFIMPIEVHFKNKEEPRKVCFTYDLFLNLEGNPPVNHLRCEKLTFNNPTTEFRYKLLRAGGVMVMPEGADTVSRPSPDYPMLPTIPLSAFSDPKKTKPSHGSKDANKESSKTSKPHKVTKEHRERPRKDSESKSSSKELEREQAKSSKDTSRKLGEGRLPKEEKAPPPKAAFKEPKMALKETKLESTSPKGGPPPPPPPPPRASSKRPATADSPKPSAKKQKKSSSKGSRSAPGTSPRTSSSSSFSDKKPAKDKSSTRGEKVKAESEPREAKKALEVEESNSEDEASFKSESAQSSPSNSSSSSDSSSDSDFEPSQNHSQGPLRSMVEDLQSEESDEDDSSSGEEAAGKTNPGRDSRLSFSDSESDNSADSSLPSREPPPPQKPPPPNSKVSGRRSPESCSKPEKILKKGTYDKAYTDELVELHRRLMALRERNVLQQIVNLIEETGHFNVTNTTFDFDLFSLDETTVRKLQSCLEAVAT
Method: MV4; 11 cells were treated with DMSO or the indicated compounds (the same panel of ENL degraders as shown in FIG. 4) at 1 μM and 10 μM for 24 h. Cells were lysed and expression of ENL was assessed by Western blot analysis.
DMSO treated cells were used as control.
MV4; 11 cells were treated with LQ076-122, or LQ081-107 at 0.3, 1, 3, 10, and 30 μM for 24 h. DMSO treated cells were used as control. Cells were lysed and expression of ENL and GAS41 was assessed by Western analysis.
MV4; 11 cells were treated with DMSO or the indicated compounds at 1 μM and 10 μM for 6 h. Cells were lysed and expression of endogenous ENL was assessed by Western blot analysis.
Cells were treated with 1 μM of ENL degrader with or without 1 μM proteasome inhibitor MG132 for 6 h.
(§1) ENL degraders were dissolved in DMSO. DMSO with no degraders was used as the control. 1×10^6 leukemia cells were seeded in 5 mL medium. For prescreening of compounds, each test compound was added to the medium at 1 μM and 10 μM. Cells were collected after 24 h treatment. For the concentration-dependent treatment, candidate compounds were added to the medium at a series of concentration as indicated in figures. Cells were collected after 24 h treatment. For the time-course treatment, candidate compounds were added to the medium at a final concentration of 4 μM (MV4; 11 cells) or 8 μM (MOLM13 cells). Cells were collected at the indicated timepoints (in hours: 12, 16, 20, 24 and 36 h).
(§2) After ENL degrader treatment, cells were collected, lysed, and total cell lysates were used for Western blot. The following primary antibodies were used: ENL (Cell Signaling Technology), GAS41 (Santa Cruz), GAPDH (Santa Cruz), β-actin (Sigma). Blots were detected using HRP-conjugated secondary antibodies.

[2] = system: ENL-dependent MV4; 11 cells; experiment: Cell viability (CellTiter-Glo), MV4; 11 cells
Method: (§3) MV4; 11 (FIG. 13A), MOLM13 (FIG. 13B) and Jurkat (FIG. 13C) cells were seeded at 2×10^5 cells/mL density and treated with DMSO or indicated compounds 0.5, 1, 2 and 4 μM for 72 h. Cell viability was measured using CellTiter-Glo reagent (Promega) and relative cell viability was calculated by normalization to DMSO samples.
(§4) ENL-dependent MV4; 11 cells were seeded at 2×10^5 cells/mL density and treated with DMSO or the indicated compounds at 0, 1.25, 2.5, 5 and 10 μM for 72 h. Cell viability was measured using CellTiter-Glo reagent (Promega) and relative cell viability was calculated by normalization to DMSO samples.
as §4, with “11 and ENL-independent Jurkat” for “11”, “or” for “or the”, “10 nM, 100 nM, 1 μM” for “0, 1.25, 2.5, 5”, “3 days (A) or 6 days (B).” for “72 h.”
(§5) MV4; 11 or MOLM13 cells were seeded at 0.2×10^6 cells/mL density. Cells were treated with DMSO or ENL degraders at indicated concentrations. Each treatment was done in triplicates. After 72 h treatment, 100 μL of cell suspension from each treatment was mixed with 25 μL of CellTiter-Glo reagent (Promega) and incubated for 10 min before the luminescence signals were detected on a plate reader.

[3] = system: ENL-dependent MOLM13 leukemia cells; experiment: Cell viability (CellTiter-Glo), MOLM13 cells; conditions: MOLM13 cells, 0.5, 1, 2 and 4 μM for 72 h
Method: as §3, §5

ENL [4] = biological target: T1, ENL; experiment: Western blot of ENL protein levels in MOLM13 cells; conditions: for reduction of ENL protein levels: 1 nM to 10 μM for 6 h; for ENL protein level after long treatment: 1 μM for 48 and 72 h
Method: MOLM13 cells were treated with LQ076-122 or LQ081-108 at 0, 0.25, 0.5, 1, 1.5, 2, 2.5, 3, 4 and 8 μM for 24 h.
MOLM13 cells were treated with DMSO or 8 μM of LQ076-122 for 12, 16, 20, 24 and 36 h.
MV4; 11, MOLM13 and Jurkat cells were treated with LQ108-69, LQ108-71, LQ108-72, LQ126-62 and LQ126-63 at 0, 1 nM, 10 nM, 100 nM, 1 μM, and 10 μM doses for 6 h. DMSO was used as negative control.
as §1, §2

ENL [5] = biological target: T1, ENL; experiment: Western blot of ENL protein levels in Jurkat cells; conditions: for reduction of ENL protein levels: 1 nM to 10 μM for 6 h; for ENL protein level after long treatment: 1 μM for 48 and 72 h
Source text: […] DMSO was used as negative control.
as §2

[6] = 11 cells, 1.25, 2.5, 5 and 10 μM for 72 h

| ENL protein level after long treatment (ENL [1]) | ENL protein level after long treatment (ENL [4]) | ENL protein level after long treatment (ENL [5]) | effect of proteasome inhibitor MG132 on the ENL degradation induced by the degrader (ENL [1]; 1 μM degrader with or without 1 μM MG132 for 6 h) | SMILES | reduction of ENL protein levels (ENL [1]; 0-8 μM for 24 h) | reduction of ENL protein levels (ENL [1]; 10 μM, 24 h) | suppression of cell growth (relative cell viability) ([2]; 11 cells, 0.5, 1, 2 and 4 μM for 72 h) | suppression of cell growth (relative cell viability) [3] | reduction of ENL protein levels (ENL [1]; 1 nM to 10 μM for 6 h) | suppression of cell growth (relative cell viability) [2, 6] | reduction of ENL protein levels (ENL [4]) | reduction of ENL protein levels (ENL [5]) |
| --- | --- | --- | --- | --- | --- | --- | --- | --- | --- | --- | --- | --- |
| – | – | – | – | Cc1ncsc1-c1ccc([C@H](C)NC(=O)[C@@H]2C[C@@H](O)CN2C(=O)[C@@H](NC(=O)CCCCCCCCCCCNC(=O)c2ccc(C(=O)Nc3ccc4[nH]c(CN5CCC[C@@H]5C)nc4c3)cc2)C(C)(C)C)cc1 [LQ081-109, N^1-(12-(((S)-1-((2S,4R)-4-hydroxy-2-(((S)-1-(4-(4-methylthiazol-5-yl)phenyl)ethyl)carbamoyl)pyrrolidin-1-yl)-3,3-dimethyl-1-oxobutan-2-yl)amino)-12-oxododecyl)-N^4-(2-(((S)-2-methylpyrrolidin-1-yl)methyl)-1H-benzo[d]imidazol-5-yl)terephthalamide] | reduced ENL protein levels in a concentration-dependent manner | effective in reducing ENL protein levels | selectively suppressed cell growth | selectively suppressed cell growth | – | – | – | – |
| maintained the ENL protein at low levels | maintained the ENL protein at low levels | maintained the ENL protein at low levels | – | Cc1ncsc1-c1ccc([C@H](CC(=O)NCCCCCCCCNC(=O)c2ccc3c(c2)[C@H](NC(=O)c2cc(-c4ccc(C(=O)N(C)C)c(O)c4)on2)CC3)NC(=O)[C@@H]2C[C@@H](O)CN2C(=O)[C@@H](NC(=O)C2(F)CC2)C(C)(C)C)cc1 [LQ108-71, 5-(4-(dimethylcarbamoyl)-3-hydroxyphenyl)-N—((R)-6-((8-((S)-3-((2S,4R)-1-((S)-2-(1-fluorocyclopropane-1-carboxamido)-3,3-dimethylbutanoyl)-4-hydroxypyrrolidine-2-carboxamido)-3-(4-(4-methylthiazol-5-yl)phenyl)propanamido)octyl)carbamoyl)-2,3-dihydro-1H-inden-1-yl)isoxazole-3-carboxamide] | – | – | – | – | reduced ENL protein levels in a concentration-dependent manner | significantly suppressed MV4; 11 cell growth at low micromolar concentration | reduced ENL protein levels in a concentration-dependent manner | reduced ENL protein levels in a concentration-dependent manner |
| maintained the ENL protein at low levels | maintained the ENL protein at low levels | maintained the ENL protein at low levels | – | Cc1ncsc1-c1ccc([C@H](CC(=O)NCCCCCCCCCNC(=O)c2ccc3c(c2)[C@H](NC(=O)c2cc(-c4ccc(C(=O)N(C)C)c(O)c4)on2)CC3)NC(=O)[C@@H]2C[C@@H](O)CN2C(=O)[C@@H](NC(=O)C2(F)CC2)C(C)(C)C)cc1 [LQ108-72, 5-(4-(dimethylcarbamoyl)-3-hydroxyphenyl)-N—((R)-6-((9-((S)-3-((2S,4R)-1-((S)-2-(1-fluorocyclopropane-1-carboxamido)-3,3-dimethylbutanoyl)-4-hydroxypyrrolidine-2-carboxamido)-3-(4-(4-methylthiazol-5-yl)phenyl)propanamido)nonyl)carbamoyl)-2,3-dihydro-1H-inden-1-yl)isoxazole-3-carboxamide] | – | – | – | – | reduced ENL protein levels in a concentration-dependent manner | significantly suppressed MV4; 11 cell growth at low micromolar concentration | reduced ENL protein levels in a concentration-dependent manner | reduced ENL protein levels in a concentration-dependent manner |
| maintained the ENL protein at low levels | maintained the ENL protein at low levels | maintained the ENL protein at low levels | partially blocks the ENL degradation | Cc1ncsc1-c1ccc(CNC(=O)[C@@H]2C[C@@H](O)CN2C(=O)[C@@H](NC(=O)CCCCCCCCCNC(=O)c2ccc3c(c2)[C@H](NC(=O)c2cc(-c4ccc(C(=O)N(C)C)c(O)c4)on2)CC3)C(C)(C)C)cc1 [LQ126-62, 5-(4-(dimethylcarbamoyl)-3-hydroxyphenyl)-N—((R)-6-((10-(((S)-1-((2S,4R)-4-hydroxy-2-((4-(4-methylthiazol-5-yl)benzyl)carbamoyl)pyrrolidin-1-yl)-3,3-dimethyl-1-oxobutan-2-yl)amino)-10-oxodecyl)carbamoyl)-2,3-dihydro-1H-inden-1-yl)isoxazole-3-carboxamide] | – | – | – | – | reduced ENL protein levels in a concentration-dependent manner | significantly suppressed MV4; 11 cell growth at low micromolar concentration | reduced ENL protein levels in a concentration-dependent manner | reduced ENL protein levels in a concentration-dependent manner |
